Laboratory results from patent publication US20250099486A1, “WOUND HEALING MEDICAMENT” (The University of Sheffield, priority 2017, published 2025).

Key:
[1] = system: full-thickness wounds (20 mm); experiment: Full-thickness excisional rat wound model; assay type: in vivo, male Sprague-Dawley (SD) rats
Protocol: For in vivo experiments, 20 mm diameter and 1.2 mm thickness circles of hydrogels were prepared. These samples were sterilized using ethanol (70%) solution, air dried and equilibrated in PBS briefly before placing on the wound. For animal trials, male Sprague-Dawley (SD) rats weighing 140-170 g were used in the study. The animals had free access to food and water and were kept in the animal house facility of the Centre of Excellence in Molecular Biology (CEMB), Lahore. All animals were treated according to procedures approved by the Institutional Animal Ethics Committee at CEMB, Lahore, Pakistan. Animals were anesthetized with ketamine (100 mg/kg body weight) and xylazine (10 mg/kg body weight) and then the fur from the dorsal side was removed with a hair trimmer (Dingling professional hair clipper, RF-608, China). The backs of the rats were completely shaved for adhesive tape fixation and dressing. After shaving, the backs were cleaned with ethanol and then they were transferred onto a clean sterilized table and three circular shaped wounds were created by removing skin at three marked areas with the help of surgical scissors (Noorani Surgical Medical Supplies, Pakistan). Immediately followed the excision process, one of these wounds was covered with sterilized, 2-deoxy-D-ribose-loaded (using 70% ethanol) membrane circles and the other was covered with the same material membranes but without any 2-deoxy-D-ribose. Both the implanted membranes were sutured in position using sterile braided silk sutures (Mersilk, diameter 220 microns). The scaffolds were covered with adhesive plaster (Mepore, Sweden), further dressed with cotton gauze and finally secured with white surgical adhesive tape (Nitto, Japan) to prevent damage from self-grooming. One of these wounds was kept open and covered with dressing only (Mepore, Sweden) to serve as a negative control.
Surgical dressings were removed after three days of membrane implantation. On days 0, 3, 9, 11, 14 and 17 post-wounding, the wounds were measured and photographed. The wound areas were quantified using Image j software. By the end of experiments, on day 17, rats were euthanized with an overdose of anaesthesia and tissue sections from Implantation sites of normal, sham, control and 2-deoxy-D-ribose-loaded scaffold treated groups were removed. The samples were fixed in 3.7% paraformaldehyde (Sigma-Aldrich, USA) solution for 24 hours at room temperature. They were dehydrated using various concentrations of ethanol and water from 70% to 100% and paraffin blocks were made.
Sections of 6 μm thick were cut from the paraffin embedded samples with a microtome (Leica TP 1020 Automatic Tissue Processor) and placed on Superfrost® plus slides (Menzel-Gläser, Denmark). Conventional Haematoxylin and Eosin (H&E) staining and Gouldner's trichrome staining was performed (Yar et al., International Journal of Polymeric Materials and Polymeric Biomaterials. 2016) before mounting in DPX mounting medium (Fisher Scientific) with a coverslip.
For immunohistochemistry, 6 μm sections were processed with a mouse/rabbit specific HRP/DAB (ABC) Detection IHC Kit (Abcam). After rehydration, antigen retrieval and protein blocking steps, the sections were incubated with 3 different monoclonal antibodies (rabbit anti-CD34 (Abcam) 1:1000, mouse anti-CD80 (Santa Cruz) 1:100 and mouse anti-CD163 (AbD Serotec) 1:300) for 2 hours diluted in 1% BSA (Sigma-Aldrich). This was followed by 10 min incubation with a secondary biotinylated goat anti-polyvalent antibody (Abcam Detection IHC Kit). After incubation with an avidin and biotinylated horseradish peroxidase, the target proteins were visualized by incubation in peroxidase substrate and DAB chromogen (Abcam Detection IHC Kit). Samples were then counterstained with haematoxylin, dehydrated, and mounted as per H&E protocol. Controls consisted of samples incubated without primary and secondary antibodies, or incubated only with secondary antibodies. […]

CAM = experiment: Ex-ovo CAM assay, implantation of E2 and 2dDR releasing PHBV scaffolds; assay type: in vivo, chicken (Gallus domesticus); conditions: for mean vessel count: control 23.1 (±1.24)
Protocol: All CAM experiments were carried out according to the Home Office, UK guidelines. Fertilised chicken eggs (Gallus domesticus) were purchased from Henry Stewart & Co. (MedEggs, Norwich, UK). The eggs were carefully wiped with 20% industrial methylated spirit (IMS) solution using hand paper towels in order to remove dirt and feathers from the shell. The eggs were then incubated at 37.5° C. until embryonic development day (EDD) 3, lying horizontally in an humidified egg incubator (RCOM King SURO, P&T Poultry, Powys, Wales).
On EDD3, the upper surface of the eggs were marked with a felt pen. The eggs were held horizontally (with the marked surface on top) and cracked on the edge of a 1000 ml glass beaker and kept close to the bottom surface of petri dishes. The embryos were then transferred gently into sterile petri dishes and kept in a humidified incubator (Binder, Tuttlingen, Germany) at 38° C.
Scaffolds were cut into 5.5 mm diameter circles using a laser cutting machine (Epilog Laser Cutter, Clevedon, UK) and sterilised under UV light for 1 hour prior to implantation. Two circular scaffolds were placed on CAM at EDD8. Images of the scaffolds were acquired using a digital microscope at EDD 12 and EDD14. Microinjection of rhodamine labelled lectin into the circulation was performed, CAMs were removed and fixed in 3.7% formaldehyde solution. Embryos were then sacrificed at the end of EDD14. Angiogenesis was quantified by counting all blood vessels that converged towards the graft.
Haematoxylin and Eosin (H&E) staining was performed on cell impregnated scaffolds by modifiying a standard protocol. Briefly, fixed samples were embedded in optimal cutting temperature OCT and frozen in liquid nitrogen for 3 minutes. Sections were cut 8-10 μm thick using a cryostat (Leica Biosystems Nussloch, Germany) at −20° C. Sections were then stained with haematoxylin for 90 seconds and eosin for 5 minutes respectively. Finally H&E images were acquired under a light microscope (Motic DM-B1, Xiamen, China). The total number of blood vessels adjacent to the scaffolds were quantified by counting blood vessels in H&E sections [A. Minajeva, M. Kase, M. Saretok, A. Adamson-Raieste, S. Kase, K. Niinepuu, M Vardja, T. Asser, J. Jaal, Impact of Blood Vessel Quantity and Vascular Expression of CD133 and ICAM-1 on Survival of Glioblastoma Patients, Neurosci J. 2017 (2017) 8 pages] Briefly, all discernible blood vessels adjacent to the scaffolds were counted by two independent researchers using two independent microscopes at 10× magnification from the total of six different slides for each group and six different area of interest from each slide.

[2] = 17 days, loaded CS/collagen scaffold

Q: Which results are given for `O=CC[C@H](O)[C@H](O)CO` [2-deoxy-D-ribose]?
A: epithelium and hair follicles (Goldner's trichrome) [1, 2]: epithelium and hair follicles already formed; wound healing by histology (H&E) [1, 2]: essentially complete; vascularisation (staining for CD34 positive cells) ([1]; added to chitosan/collagen hydrogel): increase in vascularisation; attachment of scaffold to the surrounding tissues ([1]; day 3, loaded CS/collagen scaffold): very much attached to the surrounding tissues; wound area ([1]; day 9, loaded CS/collagen hydrogel): around 50%; wound area healed ([1]; day 11, loaded CS/collagen hydrogel): more than 50%; wound closure ([1]; day 17, loaded CS/collagen hydrogel): completely closed; wound healing ([1]; loaded in CS/collagen hydrogel): accelerated; mean vessel count (CAM; 250 mg 2dDR loaded PHBV scaffolds): 48.6 (±1.02); mean vessel count (CAM; 500 mg 2dDR loaded PHBV scaffolds): 37.1 (±1.37); mean number of blood vessels adjacent to the scaffolds (H&E sections) (CAM; all concentrations, compared with controls and CAM only groups): significantly increased; number of discernible blood vessels growing towards the scaffolds in comparison with plain PHBV scaffolds (CAM; all groups of releasing PHBV scaffolds): at least doubled
